The values that follow come from article PMC11672750, “PfGSTF2 endows resistance to quizalofop‐p‐ethyl in Polypogon fugax by GSH conjugation” (Plant Biotechnology Journal, 2024).

As usually defined, the Km is the concentration of substrate that gives half-maximal velocity.

This assay concerns PfGSTF58. The assay is described as follows: absorbance at […] nm, Michaelis-Menten fit. The assay is classed as biochemical, Polypogon fugax. To be noted: GSH co-substrate; 30 °C.

`O=[N+]([O-])c1ccc(Cl)c([N+](=O)[O-])c1` [1-chloro-2,4-dinitrobenzene]: the Km was determined as 450 ± 90 µM.
